Results on three molecules are retold here after US12116388B2, “Amylin receptor agonists” (Novo Nordisk A/S, priority 2022, dated 2024).

Assay [1] has as its target T1, human calcitonin receptor (hCTR) (Homo sapiens, UniProt P30988).
T1 construct: host or cells: BHK (Baby Hamster Kidney), Hollex-1 cell line
T1 sequence (P30988 25-474): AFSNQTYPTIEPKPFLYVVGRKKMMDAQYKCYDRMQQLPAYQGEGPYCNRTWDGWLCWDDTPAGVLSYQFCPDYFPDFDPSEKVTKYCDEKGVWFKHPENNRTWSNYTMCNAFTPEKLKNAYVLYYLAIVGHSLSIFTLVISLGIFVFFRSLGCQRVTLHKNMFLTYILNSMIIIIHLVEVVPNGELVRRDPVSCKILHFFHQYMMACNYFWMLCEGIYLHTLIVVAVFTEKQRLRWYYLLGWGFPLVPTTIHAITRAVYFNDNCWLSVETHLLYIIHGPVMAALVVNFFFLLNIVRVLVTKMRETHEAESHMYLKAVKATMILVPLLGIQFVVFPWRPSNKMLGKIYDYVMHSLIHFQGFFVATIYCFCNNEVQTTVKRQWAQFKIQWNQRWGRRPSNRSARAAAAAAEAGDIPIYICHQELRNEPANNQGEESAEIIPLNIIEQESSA
In words: Human calcitonin receptor (hCTR) in vitro potency assay, CRE-luciferase reporter in BHK cells. It is filed as cell-based. The settings on record: BHK hCTR/CRE-Luc cells, 3 hours incubation, assay buffer with 1% ovalbumin; read-out: hCalcR potency, EC50. From the text:
Activation of hCTR leads to increased cellular concentrations of CAMP. Consequently, transcription is activated by promotors containing multiple copies of the CAMP response element (CRE). It is thus possible to measure hCTR activity using a CRE-luciferase reporter gene introduced into Baby Hamster Kidney (BHK) cells co-expressing the hCTR.
A BHK cell line was stably transfected with the human calcitonin receptor (a) and a CRE-responsive luciferase (CRE-Luc) reporter gene according to methods known to the person skilled in the art (Hollex-1 cell line, obtained from Zymogenetics described in U.S. Pat. No. 5,622,839).
(§1) Cells stocks were prepared by culturing of the stably transfected BHK hCTR/CRE-Luc cell line in growth medium consisting of DMEM (Gibco, 31966-021) supplemented with 10% FBS (Gibco, 16140-071), 1% Pen/Strep (Gibco, 15140-122), 0.5 mg/mL Geneticin (Gibco, 10131-027) and 250 nM Methotrexate (Sigma, A6770). Cells at approximately 80-90% confluence were washed once with PBS (Gibco 14190-094) and loosened from the cell flasks with Versene (Gibco, 15040-033) or TrypLE™ (Gibco, 12605-010). After centrifugation, the cell pellet was dissolved and diluted to approximately 2.5×10E6 cells/mL in Recovery™ Cell Culture Freezing Medium (Gibco, 12648-010). Cells were aliquoted and stored at −180° C. until use.
(§2) The assay buffer consisted of DMEM without phenol red (Gibco, 11880-028) supplemented with 1× GlutaMAX (Gibco, 35050-038), 10 mM HEPES (Gibco, 15630-056) and 1% (w/v) ovalbumin (Sigma, A5503).
(§3) To perform the assay, BHK hCTR/CRE-Luc cells were thawed, washed once in PBS and seeded in 40 μL growth medium in a white 384-well culture plate (PerkinElmer, 6007688) at a cell density of 4.000 cells/well on the day before the experiment. The plate was incubated over night at 37° C. in 5% CO2. On the day of the assay, cells were washed once in assay buffer. Serial dilutions (7-fold dilutions, 7 concentrations Pr. compound and one well containing only assay buffer) of comparator compounds and amylin analogues were performed in assay buffer often starting from approximately 10 nM in 96-well plates and 30 μL of each concentration added to the 384-well assay plate with cells. The assay plate was incubated for 3 hours at 37° C. in 5% CO2 after which 30 μL SteadyLite Plus (PerkinElmer, 6066759) was added to each well. The assay plate was sealed, incubated at room temperature with gentle shaking for 5 minutes followed by 30 minutes incubation without shaking while protected from light. Luminescence was detected on a luminescence plate reader e.g. a Synergy 2 (BioTek).

The target in assay [2] is T2, human amylin receptor (hAMYR3) (Homo sapiens, UniProt O60896+P30988).
T2 construct: host or cells: BHK (Baby Hamster Kidney), Hollex-1 cell line further transfected with RAMP3
In words: Human amylin receptor (hAMYR3) in vitro potency assay, CRE-luciferase reporter in BHK cells. The settings on record: BHK hAMYR3/CRE-Luc cells, 3 hours incubation, assay buffer with 1% ovalbumin. It is filed as cell-based.
Excerpt: Activation of hAMYR3 leads to increased cellular concentrations of cAMP. Consequently, transcription is activated by promotors containing multiple copies of the CAMP response element (CRE). It is thus possible to measure hAMYR3 activity using a CRE-luciferase reporter gene introduced into Baby Hamster Kidney (BHK) cells co-expressing the hAMYR3.
A BHK cell line was stably transfected with the human calcitonin receptor (a) and a CRE-responsive luciferase (CRE-Luc) reporter gene according to methods known to the person skilled in the art (Hollex-1 cell line, obtained from Zymogenetics described in U.S. Pat. No. 5,622,839). The cell line was further transfected with human receptor modifying protein 3 (RAMP3) using standard methods. This turns the human calcitonin receptor into a human amylin-3(a) receptor.
as §1, with “hAMYR3/CRE-Luc” for “hCTR/CRE-Luc”, “10131-027), 0.4 mg/mL Hygromycin (Invitrogen, 10687010)” for “10131-027)”
as §2
as §3, with “hAMYR3/CRE-Luc” for “hCTR/CRE-Luc”

Starred links: 1 amine or outer side, 2 acyl side, 3 side chain; linkers in the order of their positions; H or OH if unused. Residues, ends and D or L forms follow the SMILES beside them. *: point of attachment. C20 diacid = O=C(O)CCCCCCCCCCCCCCCCCCC(=O)*; γGlu = O=C(O)[C@H](CCC(=O)[*:2])N[*:1]

T2 sequence (O60896 24-148, one chain of several): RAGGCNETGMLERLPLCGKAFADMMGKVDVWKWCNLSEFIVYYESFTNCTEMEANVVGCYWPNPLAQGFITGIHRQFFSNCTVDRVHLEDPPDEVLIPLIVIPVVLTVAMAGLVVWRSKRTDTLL

In the case of `CC[C@H](C)[C@H](NC(=O)[C@@H]1CCCN1C(=O)CNC(=O)[C@H](Cc1ccccc1)NC(=O)[C@H](CC(N)=O)NC(=O)[C@H](CC(=O)O)NC(=O)[C@H](CO)NC(=O)[C@H](CO)NC(=O)[C@H](Cc1c[nH]cn1)NC(=O)[C@H](Cc1c[nH]cn1)NC(=O)[C@H](CC(C)C)NC(=O)[C@H](Cc1ccccc1)NC(=O)[C@H](CCC(=O)O)NC(=O)[C@H](C)NC(=O)[C@H](CC(C)C)NC(=O)[C@H](CCCNC(=N)N)NC(=O)[C@H](CCC(N)=O)NC(=O)[C@@H](NC(=O)[C@H](CCC(N)=O)NC(=O)[C@H](C)NC(=O)[C@@H](NC(=O)[C@H](CO)NC(=O)[C@H](CC(C)C)NC(=O)[C@H](Cc1c[nH]cn1)NC(=O)[C@H](CO)NC(=O)[C@H](C)NC(=O)CC[C@H](NC(=O)CCCCCCCCCCCCCCCCCCC(=O)O)C(=O)O)[C@@H](C)O)[C@@H](C)O)C(=O)N[C@@H](CC(C)C)C(=O)N1CCC[C@H]1C(=O)N1CCC[C@H]1C(=O)N[C@H](C(=O)N[C@@H](CC(=O)O)C(=O)N[C@H](C(=O)NCC(=O)N[C@@H](CO)C(=O)N[C@@H](CC(N)=O)C(=O)N[C@H](C(=O)N1CCC[C@H]1C(N)=O)[C@@H](C)O)C(C)C)[C@@H](C)O` [Compound 3, N^1-[(4S)-4-carboxy-4-(19-carboxynonadecanoylamino)butanoyl]-[Ala1,Ser2,His3,Leu4,Ser5,Ala7,Gln8,Glu14,His17,Asp21,Pro25,Pro28,Pro29,Asp31,Pro37]-human amylin] ({C20 diacid-γGlu}-ASHLSTAQTQRLAEFLHHSSDNFGPILPPTDVGSNTP-NH2), the 50% effective concentration (EC50) in assay [1] was 1.3 pM.
Consider `CC[C@H](C)[C@H](NC(=O)[C@@H]1CCCN1C(=O)CNC(=O)[C@H](Cc1ccccc1)NC(=O)[C@H](Cc1c[nH]cn1)NC(=O)[C@H](Cc1c[nH]cn1)NC(=O)[C@H](CC(C)C)NC(=O)[C@H](Cc1ccccc1)NC(=O)[C@H](CCC(=O)O)NC(=O)[C@H](C)NC(=O)[C@H](CC(C)C)NC(=O)[C@H](CCCNC(=N)N)NC(=O)[C@H](C)NC(=O)[C@@H](NC(=O)[C@H](CCC(N)=O)NC(=O)[C@H](C)NC(=O)[C@@H](NC(=O)[C@H](CO)NC(=O)[C@H](CC(C)C)NC(=O)[C@H](Cc1c[nH]cn1)NC(=O)[C@H](CO)NC(=O)[C@H](C)NC(=O)CC[C@H](NC(=O)CCCCCCCCCCCCCCCCCCC(=O)O)C(=O)O)[C@@H](C)O)[C@@H](C)O)C(=O)N[C@@H](CC(C)C)C(=O)N1CCC[C@H]1C(=O)N1CCC[C@H]1C(=O)N[C@H](C(=O)N[C@@H](CC(=O)O)C(=O)N[C@H](C(=O)NCC(=O)N[C@@H](CO)C(=O)N[C@@H](CCC(=O)O)C(=O)N[C@H](C(=O)N1CCC[C@H]1C(N)=O)[C@@H](C)O)C(C)C)[C@@H](C)O` [Compound 5, N^1-[(4S)-4-carboxy-4-(19-carboxynonadecanoylamino)butanoyl]-[Ala1,Ser2,His3,Leu4,Ser5,Ala7,Gln8,Ala10,Glu14,His17,Pro25,Pro28,Pro29,Asp31,Glu35,Pro37],des-(19-22)-human amylin] ({C20 diacid-γGlu}-ASHLSTAQTARLAEFLHHFGPILPPTDVGSETP-NH2), for which the EC50 in assay [2] is 1.09 pM; in assay [1] it was 1.49 pM.
`CC[C@H](C)[C@H](NC(=O)[C@H](C)NC(=O)CNC(=O)[C@H](Cc1ccccc1)NC(=O)[C@@H]1CCCN1C(=O)[C@H](CC(=O)O)NC(=O)[C@H](CO)NC(=O)[C@H](CO)NC(=O)[C@H](Cc1c[nH]cn1)NC(=O)[C@H](Cc1c[nH]cn1)NC(=O)[C@H](CC(C)C)NC(=O)[C@H](Cc1ccccc1)NC(=O)[C@H](CCC(=O)O)NC(=O)[C@H](C)NC(=O)[C@H](CC(C)C)NC(=O)[C@H](CCCNC(=N)N)NC(=O)[C@H](CCC(N)=O)NC(=O)[C@@H](NC(=O)[C@H](CCC(N)=O)NC(=O)[C@H](C)NC(=O)[C@@H](NC(=O)[C@H](CO)NC(=O)[C@H](CC(C)C)NC(=O)[C@H](Cc1c[nH]cn1)NC(=O)[C@H](CO)NC(=O)[C@H](C)NC(=O)CC[C@H](NC(=O)CCCCCCCCCCCCCCCCCCC(=O)O)C(=O)O)[C@@H](C)O)[C@@H](C)O)C(=O)N1CCC[C@H]1C(=O)N[C@@H](CO)C(=O)N[C@@H](CO)C(=O)N[C@H](C(=O)N[C@@H](CC(=O)O)C(=O)N[C@H](C(=O)NCC(=O)N1CCC[C@H]1C(=O)N[C@@H](CC(=O)O)C(=O)N[C@H](C(=O)N1CCC[C@H]1C(N)=O)[C@@H](C)O)C(C)C)[C@@H](C)O` [Compound 6, N^1-[(4S)-4-carboxy-4-(19-carboxynonadecanoylamino)butanoyl]-[Ala1,Ser2,His3,Leu4,Ser5,Ala7,Gln8,Glu14,His17,Asp21,Pro22,Pro27,Asp31,Pro34,Asp35,Pro37]-human amylin] ({C20 diacid-γGlu}-ASHLSTAQTQRLAEFLHHSSDPFGAIPSSTDVGPDTP-NH2): the 50% effective concentration (EC50) in assay [1] was 1.25 pM.
